Assay results as given in ChEMBL document CHEMBL3044604, “Synthesis of some substituted furan-2(5H)-ones and derived quinoxalinones as potential anti-microbial and anti-cancer agents” (Med Chem Res, 2011).
Converted amounts (≈) assume the structure as drawn.

Experiments:
[1] = biological target: Glycogen synthase kinase-3 (Homo sapiens, UniProt P49840+P49841); experiment: Inhibition of GSK3alpha/beta (unknown origin); type: protein assay
[2] = biological target: Cyclin-dependent kinase 5/CDK5 activator 1 (Homo sapiens, UniProt Q00535); experiment: Inhibition of CDK5/p25 (unknown origin); type: protein-complex assay
Chain of Cyclin-dependent kinase 5/CDK5 activator 1 (Q00535 whole entry): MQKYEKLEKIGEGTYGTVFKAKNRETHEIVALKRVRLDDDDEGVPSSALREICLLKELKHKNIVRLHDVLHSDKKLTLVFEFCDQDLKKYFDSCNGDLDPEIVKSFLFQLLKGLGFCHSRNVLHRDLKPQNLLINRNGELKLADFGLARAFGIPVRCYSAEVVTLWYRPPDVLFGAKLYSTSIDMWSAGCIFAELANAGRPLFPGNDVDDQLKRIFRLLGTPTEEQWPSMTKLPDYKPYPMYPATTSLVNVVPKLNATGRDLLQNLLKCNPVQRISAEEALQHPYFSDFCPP
Chain of Cyclin-dependent kinase 5/CDK5 activator 1 (Q15078 whole entry, further chain): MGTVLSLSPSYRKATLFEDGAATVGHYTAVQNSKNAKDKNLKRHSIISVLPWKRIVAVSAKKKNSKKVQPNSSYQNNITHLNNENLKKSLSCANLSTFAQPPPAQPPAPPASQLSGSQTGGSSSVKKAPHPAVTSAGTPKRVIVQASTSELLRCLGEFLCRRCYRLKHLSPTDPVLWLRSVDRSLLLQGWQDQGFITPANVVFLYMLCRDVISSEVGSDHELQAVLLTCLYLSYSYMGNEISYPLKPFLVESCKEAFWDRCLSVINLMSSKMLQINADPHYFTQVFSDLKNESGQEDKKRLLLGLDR

[3] = Inhibition of Marthasterias glacialis CDK1/cyclin B using histone H1 as substrate and [gamma32P]ATP after 10 min by scintillation counting
Candida albicans [4] = experiment: Antifungal activity against Candida albicans ATCC 10231 at 1 mg/ml after 24 hr by agar cup diffusion method; type: functional; details: ATCC 10231, 24 h, read-out: DIZ
Staphylococcus aureus [5] = experiment: Antibacterial activity against Staphylococcus aureus ATCC 6538 incubated for 48 hr followed by subculturing measured after 18 hr; type: functional
Staphylococcus aureus [6] = experiment: Antibacterial activity against Staphylococcus aureus ATCC 6538 after 48 hr by two fold serial dilution method; type: functional; details: ATCC 6538, 48 h
Staphylococcus aureus [7] = experiment: Antibacterial activity against Staphylococcus aureus ATCC 6538 at 1 mg/ml after 24 hr by agar cup diffusion method; type: functional; details: ATCC 6538, 24 h, read-out: DIZ
Escherichia coli [8] = experiment: Antibacterial activity against Escherichia coli NCTC 10418 at 1 mg/ml after 24 hr by agar cup diffusion method; type: functional; details: NCTC 10418, 24 h, read-out: DIZ
Candida albicans [9] = experiment: Antifungal activity against Candida albicans ATCC 10231 incubated for 48 hr followed by subculturing measured after 18 hr; type: functional
Candida albicans [10] = experiment: Antifungal activity against Candida albicans ATCC 10231 after 48 hr by two-fold serial dilution method; type: functional; details: ATCC 10231, 48 h
Pseudomonas aeruginosa [11] = experiment: Antibacterial activity against Pseudomonas aeruginosa ATCC 9027 incubated for 48 hr followed by subculturing measured after 18 hr; type: functional
Escherichia coli [12] = experiment: Antibacterial activity against Escherichia coli NCTC 10418 incubated for 48 hr followed by subculturing measured after 18 hr; type: functional
Pseudomonas aeruginosa [13] = experiment: Antibacterial activity against Pseudomonas aeruginosa ATCC 9027 after 48 hr by two-fold serial dilution method; type: functional; details: ATCC 9027, 48 h
Escherichia coli [14] = experiment: Antibacterial activity against Escherichia coli NCTC 10418 after 48 hr by two-fold serial dilution method; type: functional; details: NCTC 10418, 48 h
Pseudomonas aeruginosa [15] = experiment: Antibacterial activity against Pseudomonas aeruginosa ATCC 9027 at 1 mg/ml after 24 hr by agar cup diffusion method; type: functional; details: ATCC 9027, 24 h, read-out: DIZ

Row | IC50 [1] [µM] | IC50 [2] [µM] | IC50 [3] [µM] | MIC (Staphylococcus aureus [6]) [µg/mL] | MIC (Candida albicans [10]) [µg/mL] | MIC (Pseudomonas aeruginosa [13]) [µg/mL] | MIC (Escherichia coli [14]) [µg/mL] | Compound | zone of inhibition at 1000 µg/mL (Candida albicans [4]) [mm] | MBC (Staphylococcus aureus [5]) [µg/mL] | zone of inhibition at 1000 µg/mL (Staphylococcus aureus [7]) [mm] | zone of inhibition at 1000 µg/mL (Escherichia coli [8]) [mm] | MFC (Candida albicans [9]) [µg/mL] | MBC (Pseudomonas aeruginosa [11]) [µg/mL] | MBC (Escherichia coli [12]) [µg/mL] | zone of inhibition at 1000 µg/mL (Pseudomonas aeruginosa [15]) [mm]
1 | > 10 | > 10 | > 10 | – | – | – | – | COc1ccc(-c2nn(-c3ccccc3)cc2C2OC(=O)C(O)=C2Br)cc1 (configuration not stated) | 15 | – | – | – | – | – | – | –
2 | > 10 | > 10 | > 10 | 125 (≈ 263 µM) | – | – | – | O=C1OC(c2cn(-c3ccccc3)nc2-c2ccc(Br)cc2)C(Br)=C1O (configuration not stated) | 16 | 250 (≈ 525 µM) | 18 | 17 | – | – | – | –
3 | > 10 | > 10 | > 10 | – | – | – | – | Cc1nn(-c2ccccc2)c(C)c1C1OC(=O)C(O)=C1Cl (configuration not stated) | 16.5 | – | – | – | – | – | – | –
4 | > 10 | > 10 | > 10 | – | 62.5 (≈ 207 µM) | – | – | O=C1OC(c2ccccc2)C(I)=C1O (configuration not stated) | 20.5 | – | – | – | 125 (≈ 414 µM) | – | – | –
5 | > 10 | > 10 | > 10 | – | – | – | – | O=C1OC(c2ccc(Cl)cc2)C(I)=C1O (configuration not stated) | 17 | – | – | – | – | – | – | –
6 | > 10 | > 10 | > 10 | – | – | – | – | COc1ccc(C2OC(=O)C(O)=C2I)cc1OC (configuration not stated) | 17.5 | – | – | – | – | – | – | –
7 | > 10 | > 10 | > 10 | 31.2 (≈ 78.9 µM) | – | – | – | Cc1nn(-c2ccccc2)c(C)c1C1OC(=O)C(O)=C1I (configuration not stated) | 17.5 | 62.5 (≈ 158 µM) | 19 | – | – | – | – | –
8 | > 10 | > 10 | > 10 | 7.81 (≈ 19.4 µM) | – | 7.81 (≈ 19.4 µM) | 7.81 (≈ 19.4 µM) | O=C(COC1=C(Br)C(c2ccccc2)OC1=O)NCc1ccccc1 (configuration not stated) | 17 | 15.6 (≈ 38.8 µM) | 23 | 24 | – | 31.2 (≈ 77.7 µM) | 15.6 (≈ 38.8 µM) | 25
9 | > 10 | > 10 | > 10 | 15.6 (≈ 49.2 µM) | – | – | – | O=c1[nH]c2ccccc2nc1/C(Cl)=C/c1ccc(Cl)cc1 | 17 | 125 (≈ 394 µM) | 25 | – | – | – | – | 15
10 | > 10 | > 10 | > 10 | – | – | – | – | O=c1[nH]c2ccccc2nc1/C(I)=C/c1ccccc1 | 16 | – | – | – | – | – | – | –
11 | > 10 | > 10 | > 10 | – | – | – | – | O=c1[nH]c2ccccc2nc1/C(I)=C/c1ccc(Cl)cc1 | – | – | – | 15 | – | – | – | 16.5
12 | > 10 | > 10 | > 10 | – | – | – | 62.5 (≈ 133 µM) | Cc1nn(-c2ccccc2)c(C)c1/C=C(\I)c1nc2ccccc2[nH]c1=O | – | – | – | 20 | – | – | 250 (≈ 534 µM) | 17.5
13 | > 10 | > 10 | > 10 | 125 (≈ 478 µM) | – | 31.2 (≈ 120 µM) | 125 (≈ 478 µM) | O=C(O)/C(Br)=C/c1ccc(Cl)cc1 | 15 | 500 (≈ 1910 µM) | 30 | 18 | – | 62.5 (≈ 239 µM) | 500 (≈ 1910 µM) | 18
14 | > 10 | > 10 | > 10 | – | – | 31.2 (≈ 97.3 µM) | 31.2 (≈ 97.3 µM) | Cc1nn(-c2ccccc2)c(C)c1/C=C(\Br)C(=O)O | – | – | – | 19 | – | 62.5 (≈ 195 µM) | 125 (≈ 389 µM) | 20
15 | > 10 | > 10 | > 10 | 31.2 (≈ 69.7 µM) | – | 250 (≈ 558 µM) | – | O=C(O)/C(Br)=C/c1cn(-c2ccccc2)nc1-c1ccc(Br)cc1 | 15 | 62.5 (≈ 139 µM) | 33 | 17 | – | 500 (≈ 1120 µM) | – | 18
16 | > 10 | > 10 | > 10 | – | 31.2 (≈ 98.2 µM) | – | 31.2 (≈ 98.2 µM) | O=C(O)C(=O)/C=C/c1cn(-c2ccccc2)nc1-c1ccccc1 | 21 | – | – | 19 | 125 (≈ 393 µM) | – | 125 (≈ 393 µM) | 12
17 | > 10 | > 10 | > 10 | 125 (≈ 359 µM) | 31.2 (≈ 89.7 µM) | – | – | COc1ccc(-c2nn(-c3ccccc3)cc2/C=C/C(=O)C(=O)O)cc1 | 20 | > 500 | 19 | 17 | 125 (≈ 359 µM) | – | – | 13
18 | > 10 | > 10 | > 10 | – | 7.81 (≈ 19.7 µM) | – | 62.5 (≈ 157 µM) | O=C(O)C(=O)/C=C/c1cn(-c2ccccc2)nc1-c1ccc(Br)cc1 | 21 | – | – | 19 | 31.2 (≈ 78.7 µM) | – | > 500 | 13
19 | > 10 | > 10 | > 10 | 62.5 (≈ 245 µM) | 31.2 (≈ 123 µM) | – | 62.5 (≈ 245 µM) | O=C1OC(c2ccccc2)C(Br)=C1O (configuration not stated) | 20.5 | > 500 | 23 | 21 | 62.5 (≈ 245 µM) | – | 250 (≈ 980 µM) | 13.5
20 | > 10 | > 10 | > 10 | 62.5 (≈ 216 µM) | 31.2 (≈ 108 µM) | – | 31.2 (≈ 108 µM) | O=C1OC(c2ccc(Cl)cc2)C(Br)=C1O (configuration not stated) | 21 | 150 (≈ 518 µM) | 20 | 20 | 62.5 (≈ 216 µM) | – | 125 (≈ 432 µM) | –
21 | > 10 | > 10 | > 10 | 62.5 (≈ 179 µM) | – | – | – | Cc1nn(-c2ccccc2)c(C)c1C1OC(=O)C(O)=C1Br (configuration not stated) | 17 | 125 (≈ 358 µM) | 19 | 17 | – | – | – | –
22 | > 10 | > 10 | > 10 | – | – | 62.5 (≈ 157 µM) | 62.5 (≈ 157 µM) | O=C1OC(c2cn(-c3ccccc3)nc2-c2ccccc2)C(Br)=C1O (configuration not stated) | 16.5 | – | – | 19 | – | 125 (≈ 315 µM) | 250 (≈ 629 µM) | 19
23 | – | – | – | 3.9 (≈ 11.2 µM) | – | 125 (≈ 358 µM) | 7.81 (≈ 22.4 µM) | CC1(C)S[C@@H]2[C@H](NC(=O)[C@H](N)c3ccccc3)C(=O)N2[C@H]1C(=O)O [AMPICILLIN] | – | 15.6 (≈ 44.7 µM) | 40 | 26 | – | 250 (≈ 715 µM) | 31.2 (≈ 89.4 µM) | –
24 | – | – | – | – | 7.81 (≈ 22.6 µM) | – | – | Clc1ccccc1C(c1ccccc1)(c1ccccc1)n1ccnc1 [CLOTRIMAZOLE] | 28 | – | – | – | 15.6 (≈ 45.3 µM) | – | – | –
